Assay results: patent US8916702B2 (priority 2012, dated 2014)
Where two headings read alike, the source gives them in different places.

System: HCV pseudoparticles (genotype 1a HCV E1 and E2 envelope, H77C isolate)
Assay: microbe, parasite or virus in culture
Type: cell-based
Conditions: Hepatitis C virus
[1] = Huh-7, 48 h, read-out: Activity (EC50 class), HCV pseudoparticle infection of Huh7 cells, luciferase 2 days after infection, EC50 expressed as class A/B
[2] = Huh-7, 48 h, read-out: Activity (EC50 class), HCV pseudoparticles, Huh7 cells, luciferase 2 days after infection, average of duplicates
[3] = Huh-7, read-out: Activity (EC50 class), HCV pseudoparticles (genotype 1a, H77C) in Huh7 cells, EC50 expressed as class A/B
[4] = Huh-7, 48 h, HCV pseudoparticles, Huh7 cells, luciferase 2 days after infection, average of duplicates
[5] = Huh-7, 48 h, HCV pseudoparticles (genotype 1a, H77C) in Huh7 cells, average of duplicate, luciferase 2 days after infection
[6] = Huh-7, 48 h, HCV pseudoparticle infection of Huh7 cells, luciferase 2 days after infection, average of duplicates

Row | SMILES | EC50 [1] [nM] | EC50 [3] [nM] | further results
1 | COc1ncccc1NC(=O)C(=O)NCC[C@H](NC(=O)c1ccc(Nc2nc(NC3(c4ccc(Cl)cc4)CC3)nc(OCC(F)(F)F)n2)cc1)C(=O)O [Compound 1261] | 0.01 to 10 |  | 
2 | COC(=O)[C@H](CNC(=O)C(=O)Nc1cccc(-n2cnnc2)c1)NC(=O)c1ccc(Nc2nc(NC3(c4ccc(Cl)cc4)CC3)nc(OCC(F)(F)F)n2)cc1 [Compound 3729] |  |  | EC50 [2]: 0.01 to 10 nM
3 | Cc1ccc(NC(=O)C(=O)NC[C@H](NC(=O)c2ccc(Nc3nc(NC4(c5ccc(Cl)cc5)CC4)nc(OCC(F)(F)F)n3)cc2)C(=O)O)cc1 [Compound 1360] | 0.01 to 10 |  | 
4 | CC(C)(CNC(=O)C(=O)Nc1ccccc1C#N)CNC(=O)c1ccc(Nc2nc(NC3(c4ccc(Cl)cc4)CC3)nc(OCC(F)(F)F)n2)cc1 [Compound 3385] |  | 0.01 to 10 | 
5 | COC(=O)[C@H](CCNC(=O)C(=O)N(C)C)NC(=O)c1ccc(Nc2nc(NC3(c4ccc(Cl)cc4)CC3)nc(OCC(F)(F)F)n2)cc1 [Compound 1011, (S)-methyl 2-(4-(4-(1-(4-chlorophenyl)cyclopropylamino)-6-(2,2,2-trifluoroethoxy)-1,3,5-triazin-2-ylamino)benzamido)-4-(2-(dimethylamino)-2-oxoacetamido)butanoate] | 0.01 to 10 |  | 
6 | CC1CCCC(NC(=O)C(=O)NCC[C@H](NC(=O)c2ccc(Nc3nc(NC4(c5ccc(Cl)cc5)CC4)nc(OCC(F)(F)F)n3)cc2)C(=O)O)C1 (some centres unmarked) [Compound 1125] | 0.01 to 10 |  | 
7 | COC(=O)[C@H](CNC(=O)C(=O)Nc1cccc(C(C)(C)C)c1)NC(=O)c1ccc(Nc2nc(NC3(c4ccc(Cl)cc4)CC3)nc(OCC(F)(F)F)n2)cc1 [Compound 3704] |  |  | EC50 [2]: 0.01 to 10 nM
8 | COC(=O)[C@H](CNC(=O)C(=O)Nc1ccc(C(N)=O)cc1)NC(=O)c1ccc(Nc2nc(NC3(c4ccc(Cl)cc4)CC3)nc(OCC(F)(F)F)n2)cc1 [Compound 3088] |  | 0.01 to 10 | 
9 | CC(C)(O)C=Cc1cccc(NC(=O)C(=O)NCC[C@H](NC(=O)c2ccc(Nc3nc(NC4(c5ccc(Cl)cc5)CC4)nc(OCC(F)(F)F)n3)cc2)C(=O)O)c1 [Compound 3648] |  |  | EC50 [4]: 0.2 nM; EC50 [2]: 0.01 to 10 nM
10 | COc1cc2sc(NC(=O)C(=O)NCC(C)(C)CNC(=O)c3ccc(Nc4nc(NC5(c6ccc(Cl)cc6)CC5)nc(OCC(F)(F)F)n4)cc3)nc2cc1Cl [Compound 3802] |  |  | EC50 [2]: 0.01 to 10 nM
11 | CC(C)(CNC(=O)C(=O)Nc1ccc(C(=O)c2ccc(N)cc2)cc1)CNC(=O)c1ccc(Nc2nc(NC3(c4ccc(Cl)cc4)CC3)nc(OCC(F)(F)F)n2)cc1 [Compound 3264] |  | 0.01 to 10 | EC50 [5]: 0.24 nM
12 | CN(CCCN(C)C(=O)c1ccc(Nc2nc(NC3(c4ccc(Cl)cc4)CC3)nc(OCC(F)(F)F)n2)cc1)C(=O)C(=O)Nc1ccccc1 [Compound 3428] |  | 0.01 to 10 | 
13 | COC(=O)[C@H](CCNC(=O)C(=O)Nc1nccn1C)NC(=O)c1ccc(Nc2nc(NC3(c4ccc(Cl)cc4)CC3)nc(OCC(F)(F)F)n2)cc1 [Compound 1222] | 0.01 to 10 |  | 
14 | CCCNC(=O)C(NC(=O)c1ccc(Nc2nc(NC3(c4ccc(Cl)cc4)CC3)nc(OCC(F)(F)F)n2)cc1)C1CCCN(C(=O)C(N)=O)C1 (centres unmarked) [Compound 1019, N-(1-(1-(2-amino-2-oxoacetyl)piperidin-3-yl)-2-oxo-2-(propylamino)ethyl)-4-(4-(1-(4-chlorophenyl)cyclopropylamino)-6-(2,2,2-trifluoroethoxy)-1,3,5-triazin-2-ylamino)benzamide] | 0.01 to 10 |  | 
15 | Cc1nnc(-c2ccc(NC(=O)C(=O)NCC(C)(C)CNC(=O)c3ccc(Nc4nc(NC5(c6ccc(Cl)cc6)CC5)nc(OCC(F)(F)F)n4)cc3)cc2)[nH]1 [Compound 3674] |  |  | EC50 [4]: 0.15 nM; EC50 [2]: 0.01 to 10 nM
16 | CC(CNC(=O)C(=O)Nc1nccs1)CNC(=O)c1ccc(Nc2nc(NC3(c4ccc(Cl)cc4)CC3)nc(OCC(F)(F)F)n2)cc1 (centres unmarked) [Compound 3468] |  | 0.01 to 10 | 
17 | CCOc1ccc(NC(=O)C(=O)NCC[C@H](NC(=O)c2ccc(Nc3nc(NC4(c5ccc(Cl)cc5)CC4)nc(OCC(F)(F)F)n3)cc2)C(=O)O)cc1 [Compound 3548] |  | 0.01 to 10 | 
18 | CCc1ccc(NC(=O)C(=O)NC[C@H](NC(=O)c2ccc(Nc3nc(NC4(c5ccc(Cl)cc5)CC4)nc(OCC(F)(F)F)n3)cc2)C(=O)OC)cc1 [Compound 3213] |  | 0.01 to 10 | 
19 | CC(C)(C)OC(=O)N1CCC(NC(=O)C(=O)NCC[C@H](NC(=O)c2ccc(Nc3nc(NC4(c5ccc(Cl)cc5)CC4)nc(OCC(F)(F)F)n3)cc2)C(=O)O)CC1 [Compound 1119] | 0.01 to 10 |  | 
20 | CC(C)(CNC(=O)C(=O)Nc1ccc2cccnc2c1)CNC(=O)c1ccc(Nc2nc(NC3(c4ccc(Cl)cc4)CC3)nc(OCC(F)(F)F)n2)cc1 [Compound 3034] |  | 0.01 to 10 | EC50 [5]: 0.04 nM
21 | COC(=O)[C@H](CNC(=O)C(=O)Nc1ccc(CCO)cc1)NC(=O)c1ccc(Nc2nc(NC3(c4ccc(Cl)cc4)CC3)nc(OCC(F)(F)F)n2)cc1 [Compound 3086] |  | 0.01 to 10 | 
22 | O=C(NCc1ccc(F)cc1)C(=O)N1CCCC(CNC(=O)c2ccc(Nc3nc(NC4(c5ccc(Cl)cc5)CC4)nc(OCC(F)(F)F)n3)cc2)C1 (centres unmarked) [Compound 3483] |  | 0.01 to 10 | 
23 | COC(=O)[C@@H](CCNC(=O)C(=O)Nc1cccc(Oc2ccccc2)c1)NC(=O)c1ccc(Nc2nc(NC3(c4ccc(Cl)cc4)CC3)nc(OCC(F)(F)F)n2)cc1 [Compound 3578] |  | 0.01 to 10 | 

Row | SMILES | EC50 [1] [nM] | EC50 [3] [nM] | further results
24 | COC(=O)[C@H](CNC(=O)C(=O)Nc1ccc(C(C)(C)C)cc1)NC(=O)c1ccc(Nc2nc(NC3(c4ccc(Cl)cc4)CC3)nc(OCC(F)(F)F)n2)cc1 [Compound 3211] |  | 0.01 to 10 | 
25 | CC(C)(CNC(=O)C(=O)NCc1cccc(C(=N)N)c1)CNC(=O)c1ccc(Nc2nc(NC3(c4ccc(Cl)cc4)CC3)nc(OCC(F)(F)F)n2)cc1 [Compound 3039] |  | 0.01 to 10 | 
26 | O=C(NCC(O)CNC(=O)c1ccc(Nc2nc(NC3(c4ccc(Cl)cc4)CC3)nc(OCC(F)(F)F)n2)cc1)C(=O)N1CCc2ccccc2C1 (centres unmarked) [Compound 3464] |  | 0.01 to 10 | 
27 | C=Cc1ccc(NC(=O)C(=O)NCC[C@H](NC(=O)c2ccc(Nc3nc(NC4(c5ccc(Cl)cc5)CC4)nc(OCC(F)(F)F)n3)cc2)C(=O)OC)cc1 [Compound 3129] |  | 0.01 to 10 | EC50 [5]: 0.089 nM
28 | COC(=O)/C(CCNC(=O)C(=O)Nc1cncc(-c2nncn2C)c1)=N\C(=O)c1ccc(Nc2nc(NC3(c4ccc(Cl)cc4)CC3)nc(OCC(F)(F)F)n2)cc1 [Compound 3597] |  | 0.01 to 10 | EC50 [5]: 3.05 nM
29 | CC(C)(CNC(=O)C(=O)Nc1ccc(F)cc1Cl)CNC(=O)c1ccc(Nc2nc(NC3(c4ccc(Cl)cc4)CC3)nc(OCC(F)(F)F)n2)cc1 [Compound 3405] |  | 0.01 to 10 | 
30 | COC(=O)[C@H](CNC(=O)C(=O)Nc1ccc(-n2ccnc2)cc1)NC(=O)c1ccc(Nc2nc(NC3(c4ccc(Cl)cc4)CC3)nc(OCC(F)(F)F)n2)cc1 [Compound 3183] |  | 0.01 to 10 | 
31 | CC(C)(C)OC(=O)N1CCCC(CNC(=O)C(=O)NC[C@H](NC(=O)c2ccc(Nc3nc(NC4(c5ccc(Cl)cc5)CC4)nc(OCC(F)(F)F)n3)cc2)C(=O)O)C1 (some centres unmarked) [Compound 1468] | 0.01 to 10 |  | 
32 | CC(C)(CNC(=O)C(=O)Nc1ccc2c(c1)oc1ccccc12)CNC(=O)c1ccc(Nc2nc(NC3(c4ccc(Cl)cc4)CC3)nc(OCC(F)(F)F)n2)cc1 [Compound 1577] | 0.01 to 10 |  | 
33 | CN(CCCNC(=O)c1ccc(Nc2nc(NC3(c4ccc(Cl)cc4)CC3)nc(OCC(F)(F)F)n2)cc1)C(=O)C(N)=O [Compound 3447] |  | 0.01 to 10 | 
34 | CC(C)(CNC(=O)C(=O)Nc1ccc(F)cc1F)CNC(=O)c1ccc(Nc2nc(NC3(c4ccc(Cl)cc4)CC3)nc(OCC(F)(F)F)n2)cc1 [Compound 1539] | 0.01 to 10 |  | 
35 | COC(=O)[C@H](CNC(=O)C(=O)Nc1cc[nH]n1)NC(=O)c1ccc(Nc2nc(NC3(c4ccc(Cl)cc4)CC3)nc(OCC(F)(F)F)n2)cc1 [Compound 1245] | 0.01 to 10 |  | EC50 [6]: 1.69 nM
36 | COC(=O)[C@H](CNC(=O)C(=O)NCC1CCCc2ccccc21)NC(=O)c1ccc(Nc2nc(NC3(c4ccc(Cl)cc4)CC3)nc(OCC(F)(F)F)n2)cc1 (some centres unmarked) [Compound 1299] | 0.01 to 10 |  | 
37 | COc1cc(NC(=O)C(=O)NC[C@H](NC(=O)c2ccc(Nc3nc(NC4(c5ccc(Cl)cc5)CC4)nc(OCC(F)(F)F)n3)cc2)C(=O)O)ccn1 [Compound 1348] | 0.01 to 10 |  | EC50 [6]: 0.5 nM
38 | CC(C)(CNC(=O)C(N)=O)CNC(=O)c1ccc(Nc2nc(NC3(c4ccc(F)cc4)CC3)nc(OCC(F)(F)F)n2)cc1 [Compound 3247] |  | 0.01 to 10 | 
39 | O=C(NCC[C@H](NC(=O)c1ccc(Nc2nc(NC3(c4ccc(Cl)cc4)CC3)nc(OCC(F)(F)F)n2)cc1)C(=O)O)C(=O)Nc1cccc(-c2cnco2)c1 [Compound 3621] |  |  | EC50 [2]: 0.01 to 10 nM
40 | O=C(NC/C(=N/C(=O)c1ccc(Nc2nc(NC3(c4ccc(Cl)cc4)CC3)nc(OCC(F)(F)F)n2)cc1)C(=O)O)C(=O)Nc1ccc(N2CCN(Cc3ccccc3)CC2)cc1 [Compound 3169] |  | 0.01 to 10 | 
41 | COC(=O)[C@H](CCNC(=O)C(=O)Nc1ccccc1F)NC(=O)c1ccc(Nc2nc(NC3(c4ccc(Cl)cc4)CC3)nc(OCC(F)(F)F)n2)cc1 [Compound 1231] | 0.01 to 10 |  | 
42 | O=C(NCCC(NC(=O)c1ccc(Nc2nc(NC3(c4ccc(Cl)cc4)CC3)nc(OCC(F)(F)F)n2)cc1)C(=O)O)C(=O)Nc1ccc(Cn2cccn2)cc1 (centres unmarked) [Compound 3533] |  | 0.01 to 10 | 
43 | O=C(NCC[C@H](NC(=O)c1ccc(Nc2nc(NC3(c4ccc(Cl)cc4)CC3)nc(OCC(F)(F)F)n2)cc1)C(=O)O)C(=O)Nc1cc[nH]n1 [Compound 1265] | 0.01 to 10 |  | 
44 | COC(=O)[C@H](CCNC(=O)C(=O)NC1CCCC(C)C1)NC(=O)c1ccc(Nc2nc(NC3(c4ccc(Cl)cc4)CC3)nc(OCC(F)(F)F)n2)cc1 (some centres unmarked) [Compound 1076] | 0.01 to 10 |  | 
45 | O=C(NCCc1ccccc1F)C(=O)NCC[C@H](NC(=O)c1ccc(Nc2nc(NC3(c4ccc(Cl)cc4)CC3)nc(OCC(F)(F)F)n2)cc1)C(=O)O [Compound 1334] | 0.01 to 10 |  | 
